Assay results as given in US8552048B2, “Phosphoramidate alkylator prodrugs for the treatment of cancer” (Threshold Pharmaceuticals, Inc., priority 2006, dated 2013).
Several values for one entry are separate records, joined by “and”; a condition that tells them apart may be missing. Identical values can stand only once. Entries after “also recorded” stand apart in the source; their conditions may differ. Like-named read-outs stand apart in the source and are kept apart here.

How the values were obtained:
[1] = system: PC-3 human prostate cells; assay: PC-3 luciferase intracardiac metastasis model (bioluminescence); format: in vivo, nude mice
Protocol: Male nude mice were injected into their left ventricle with PC-3 human prostate cells (3×10^6) transfected with the gene for luciferase. The success of the intracardiac transfections was verified by a bioluminescence scan after the injection. On day 14, the mice with established bone tumor burden were randomized into four treatment groups (N=10): Taxotere® alone (20 mg/kg once a week for three weeks, i.v.), TH302 alone (50 mg/kg daily, 5 days a week for 3 weeks), combination treatment with both agents, and vehicle. Bioluminescence imaging was performed under anesthesia using an IVIS 50 optical imaging system.

[2] = system: H460 human non small cell cancer (NSCLC) cells; assay: H460 tumor excision clonogenic assay (surviving fraction) under different oxygen levels; format: in vivo, mice; details: single 50 mg/kg i.v., tumors removed 24 h post treatment
Protocol: H460 human non small cell cancer (NSCLC) cells were prepared in 30% or 50% matrigel in PRIM medium. Then 2×10^6 cells suspended in 50% matrigel were implanted subcutaneously in the right flank in 35 mice (0.2 mL/mouse), 0.5×10^6 cells suspended in 30% matrigel were similarly implanted in 30 mice. Mice bearing similar sized tumors, preferably ˜300 mm^3 were selected for TH302 administration. TH302 was formulated in saline and a single dose administered intravenously at 50 mg/kg.
The mice were placed in 95% and 10% O2 chamber for 30 min before the dosing and returned to the chamber for 2 hours immediately after treatment. Twenty-four hours post treatment, tumors were removed. The tumor tissue was minced and obtain single cells were obtained by digesting the minced tissue with an enzyme cocktail for 15 min at 37° C. with stirring, and filtering through a 40 μm sterile mash. Cell numbers were counted by a coulter counter. After a serial dilution, the ells were placed in a 60 or 100 mm Petri dish and incubated at 37° C. for 8 to 10 days for the colonies to form. The colonies were counted after stained with crystal violet (0.25% in 95% ethanol). The plating efficiency (PE) was calculated by dividing the number of colonies formed by the number of cells seeded. The surviving fraction (SF) was calculated by dividing as the PE of treated cells by PE of the cells from saline control.

[3] = Pharmacokinetics of TH302 in Beagle Dogs (Table 6); format: in vivo; details: dog, plasma, intravenous; for half-life: read-out: T½ (converted); for Vd: read-out: Vss
[4] = Pharmacokinetics in nude mice; format: in vivo; details: female, mouse, plasma
[5] = Single-dose toxicity in rats; format: in vivo
Protocol: A single-dose of TH302 was administered to rats and dogs over 30 min in order to achieve a rapid increase to relatively high drug levels. Rats were administered 50, 100, and 200 mg/kg, and dogs at 8, 16 and 32 mg/kg of TH302. […] These changes at the lowest toxicity level were fully reversible within 2 weeks.

[6] = Pharmacokinetics in cynomolgus monkeys (20 mg/kg i.v.); format: in vivo; details: for Vd: read-out: Vss
Protocol: Pharmacokinetic studies were performed in male CD-1 (50 mg/kg i.p. or orally (p.o.)) or female nude mice (50 mg/kg i.v. or i.p.), male Sprague-Dawley rats (1, 5, 20 and 50 mg/kg i.v. and 100 mg/kg, p.o.), beagle dogs (20 mg/kg, i.v.) and cynomologus monkeys (20 mg/kg i.v.). Plasma TH302 concentrations were analyzed using a LC/MS method and the pharmacokinetic parameters computed using a noncompartmental method. Interspecies scaling was performed according to standard methods.
Individual and mean pharmacokinetic parameters of TH302 following intravenous administration at a dose of 20 mg/kg (N=3) is shown in Table 7.

[7] = TH302 alone 50 mg/kg daily, 5 days a week for 3 weeks, end of the study (day 43)
[8] = cynomolgus monkey, plasma, iv, 20 mg/kg, cynomolgus monkeys, Mean (N=3)
[9] = cynomolgus monkey, plasma, iv, 20 mg/kg, monkeys
[10] = cynomolgus monkeys, individual animals, 20 mg/kg

Structure (SMILES): Cn1c(COP(=O)(NCCBr)NCCBr)cnc1[N+](=O)[O-] [TH302]
- toxicities (weight loss, deaths) ([1]; TH302 50 mg/kg daily 5 days a week for 3 weeks, Taxotere 20 mg/kg once a week for three weeks i.v., or both): minimal weight loss; also recorded: no toxicity beyond Taxotere® related toxicities
- reduction of bone metastases [1, 7]: 94%
- reduction of soft tissue tumor burden [1, 7]: 95%
- mean surviving fraction (SF) ([2]; mice breathing 10% O2): 2.58%
- mean surviving fraction (SF) ([2]; mice breathing 21% O2): 5.76%
- mean surviving fraction (SF) ([2]; mice breathing 95% O2): 50.38%
- AUC ([3]; female, Females, 4 mg/kg): 2270 ng·h/mL
- Cmax ([3]; female, Females, 4 mg/kg): 3830 ng/mL
- Tmax ([3]; female, Females, 4 mg/kg): 31 min
- clearance ([3]; female, Females, 4 mg/kg): 29.3 mL/min/kg
- half-life ([3]; female, Females, 4 mg/kg): 16.1 min
- Vd ([3]; female, Females, 4 mg/kg): 0.785 L/kg
- AUC ([3]; female, Females, 8 mg/kg): 3400 ng·h/mL
- Cmax ([3]; female, Females, 8 mg/kg): 6410 ng/mL
- Tmax ([3]; female, Females, 8 mg/kg): 31.5 min
- clearance ([3]; female, Females, 8 mg/kg): 39.7 mL/min/kg
- half-life ([3]; female, Females, 8 mg/kg): 15.1 min
- Vd ([3]; female, Females, 8 mg/kg): 0.974 L/kg
- AUC ([3]; female, Females, 16 mg/kg): 7660 ng·h/mL
- Cmax ([3]; female, Females, 16 mg/kg): 13700 ng/mL
- Tmax ([3]; female, Females, 16 mg/kg): 31 min
- clearance ([3]; female, Females, 16 mg/kg): 34.8 mL/min/kg
- half-life ([3]; female, Females, 16 mg/kg): 16.7 min
- Vd ([3]; female, Females, 16 mg/kg): 0.874 L/kg
- AUC ([3]; female, Females, 32 mg/kg): 9530 ng·h/mL
- Cmax ([3]; female, Females, 32 mg/kg): 18500 ng/mL
- Tmax ([3]; female, Females, 32 mg/kg): 31 min
- clearance ([3]; female, Females, 32 mg/kg): 56.5 mL/min/kg
- half-life ([3]; female, Females, 32 mg/kg): 15.4 min
- Vd ([3]; female, Females, 32 mg/kg): 1.37 L/kg
- AUC ([3]; male, Males, 4 mg/kg): 2330 ng·h/mL
- Cmax ([3]; male, Males, 4 mg/kg): 4160 ng/mL
- Tmax ([3]; male, Males, 4 mg/kg): 37 min
- clearance ([3]; male, Males, 4 mg/kg): 28.3 mL/min/kg
- half-life ([3]; male, Males, 4 mg/kg): 16.1 min
- Vd ([3]; male, Males, 4 mg/kg): 0.822 L/kg
- AUC ([3]; male, Males, 8 mg/kg): 3640 ng·h/mL
- Cmax ([3]; male, Males, 8 mg/kg): 6350 ng/mL
- Tmax ([3]; male, Males, 8 mg/kg): 31.5 min
- clearance ([3]; male, Males, 8 mg/kg): 37.2 mL/min/kg
- half-life ([3]; male, Males, 8 mg/kg): 15.6 min
- Vd ([3]; male, Males, 8 mg/kg): 0.982 L/kg
- AUC ([3]; male, Males, 16 mg/kg): 6200 ng·h/mL
- Cmax ([3]; male, Males, 16 mg/kg): 10800 ng/mL
- Tmax ([3]; male, Males, 16 mg/kg): 31.5 min
- clearance ([3]; male, Males, 16 mg/kg): 43 mL/min/kg
- half-life ([3]; male, Males, 16 mg/kg): 15.5 min
- Vd ([3]; male, Males, 16 mg/kg): 1.1 L/kg
- AUC ([3]; male, Males, 32 mg/kg): 11000 ng·h/mL
- Cmax ([3]; male, Males, 32 mg/kg): 23000 ng/mL
- Tmax ([3]; male, Males, 32 mg/kg): 31.5 min
- clearance ([3]; male, Males, 32 mg/kg): 48.5 mL/min/kg
- half-life ([3]; male, Males, 32 mg/kg): 14.9 min
- Vd ([3]; male, Males, 32 mg/kg): 1.12 L/kg
- Vd ([4]; intravenous, 50 mg/kg, read-out: apparent steady-state volume of distribution (Vss)): 0.542 L/kg
- clearance ([4]; intravenous, 50 mg/kg, read-out: total body clearance (Cl) (converted)): 72.8 mL/min/kg
- half-life ([4]; iv, 50 mg/kg i.v.): 8.2 min
- half-life ([4]; po, 50 mg/kg p.o. (so in the source)): 9.7 min
- affected organs at the highest dose level ([5]; 200 mg/kg single dose): bone marrow, kidney, thymus and intestine
- lethality ([5]; single dose over 30 min, highest dose 200 mg/kg): lethality was observed
- primary findings at the lowest toxicity level ([5]; single dose study): reduction in white blood cell counts accompanied only by moderate weight loss in male rats
- time to full reversal of changes at the lowest toxicity level ([5]; single dose study): ≤ 2 weeks
- species specific toxicity at the highest dose ([5]; single dose, 200 mg/kg): rat adipose and spleen
- AUC(0-t) [6, 8]: 3140 ng·h/mL
- clearance [6, 8]: 128 mL/min/kg
- Cmax ([6]; cynomolgus monkey, plasma, iv, 20 mg/kg, cynomolgus monkeys, Mean (N=3), read-out: Cmax): 20700 ng/mL
- MRT ([6]; cynomolgus monkey, plasma, iv, 20 mg/kg, cynomolgus monkeys, Mean (N=3), read-out: MRT): 19.8 min
- Vd [6, 8]: 2.92 L/kg
- Cmax ([6]; cynomolgus monkey, plasma, iv, 20 mg/kg, cynomolgus monkeys, individual animals, read-out: Cmax): 15900 ng/mL
- MRT ([6]; cynomolgus monkey, plasma, iv, 20 mg/kg, cynomolgus monkeys, individual animals, read-out: MRT): 28.6 min
- clearance [6, 9]: 128 mL/min/kg
- Vd [6, 9]: 2.92 L/kg
- Tmax ([6]; cynomolgus monkey, plasma, iv, cynomolgus monkeys, individual animals): 1.98 min
- half-life ([6]; cynomolgus monkey, plasma, iv, monkeys, read-out: Plasma t1/2): 24.9 min
- Vβ ([6]; cynomolgus monkeys, Mean (N=3)): 6.17 L/kg
- half-life ([6]; cynomolgus monkeys, Mean (N=3)): 24.9 min
- AUClast [6, 10]: 1519 ng·h/mL and 3961 ng·h/mL and 3932 ng·h/mL
- Cl [6, 10]: 217 mL/min/kg and 81.7 mL/min/kg and 84.5 mL/min/kg
- Cmax [6, 10]: 28500 ng/mL and 17600 ng/mL
- MRT [6, 10]: 14.7 min and 16.1 min
- Vss [6, 10]: 6.18 L/kg and 1.20 L/kg and 1.36 L/kg
- Vβ [6, 10]: 15.5 L/kg and 1.37 L/kg and 1.65 L/kg
- half-life [6, 10]: 49.6 min and 11.6 min and 13.6 min
